# Measured values from PMC9596378, “Discovery and molecular basis of subtype-selective cyclophilin inhibitors” (Nature Chemical Biology, 2022).
# Values joined by “and” are separate entries in the source; they are usually repeats but may differ in a detail not shown here. Equal entries are not always repeated. Where two headings read alike, the source gives them in different places.
# Assays:
# CypG = target: T1, CypG (Homo sapiens, UniProt Q13427); test: Chymotrypsin coupled prolyl-isomerase assay; format: biochemical; settings: wild-type CypG; read-out: Wild-Type Cyclophilin Prolyl Isomerase Inhibition IC50 Values, CypG
# T1 construct: PPIG (UniProtKB Entry Q13427: residues 1–179); His6 with thrombin site (pET28a LIC leader) (N); host or cells: E. coli BL21(DE3)
# T1 sequence (Q13427 1-179): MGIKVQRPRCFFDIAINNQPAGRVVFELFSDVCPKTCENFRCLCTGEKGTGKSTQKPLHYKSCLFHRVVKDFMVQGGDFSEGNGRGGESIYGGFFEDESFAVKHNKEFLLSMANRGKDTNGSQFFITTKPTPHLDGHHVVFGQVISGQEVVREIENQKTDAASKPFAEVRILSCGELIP
# Protocol: (§1) Adapting a previously described protocol, with an Agilent Bravo Velocity 11 with a 384ST head, 90 µL assay buffer (25 mM HEPES pH 7.3, 100 mM NaCl, 0.01% Triton X-100) containing 5.28 nM cyclophilin was added into a flat, clear-bottom, black 384-well plate pre-chilled in a Corning CoolBox at 2–3 °C. Five microliters of compound pre-dissolved in 5% DMSO/assay buffer was then added to appropriate wells and incubated at 2–3 °C for 5 min. Five microliters of 0.5 mM α-chymotrypsin from bovine pancreas (Type II, lyophilized powder, Millipore-Sigma) in 20% 1 mM HCl/Assay Buffer was then added to each well and incubated at 2–3 °C for 5 min. The plate was then quickly transferred to a FLIPR Tetra High-Throughput Cellular Screening System (Molecular Devices). Using the internal liquid handling system of the FLIPR, 1 µL 0.5 mM Suc-AAPF-AMC (Chymotrypsin Substrate II, Millipore-Sigma) dissolved in 0.55 M LiCl/2,2,2-trifluoroethanol was added to each well, which was then mixed for 5 s, followed by immediate fluorescence measurements every 1 s for 330 s using a 360–380 nm excitation LED module and a 400–460 nm emission filter. Final concentrations of the plate include 5 nM cyclophilin, 0.25% DMSO, 25 µM α-chymotrypsin, 5 µM Suc-AAPF-AMC. Raw fluorescence data was analyzed by non-linear regression analysis with Prism v.9 by fitting one-phase association curves to each well. […] Rate constants calculated for each well (s^−1) were then normalized to substrate only (no prolyl-isomerase) and enzyme + substrate only controls. IC50 values were calculated as the value at which 50% inhibition was achieved on the non-linear regression fitted curve of each compound.
# CypA = target: T2, CypA (Homo sapiens, UniProt P62937); test: Chymotrypsin coupled prolyl-isomerase assay; format: biochemical
# T2 construct: PPIA (UniProtKB Entry P62937: residues 1–165); made in house; host or cells: E. coli BL21(DE3)
# T2 sequence (P62937 whole entry, the tested form may be a part): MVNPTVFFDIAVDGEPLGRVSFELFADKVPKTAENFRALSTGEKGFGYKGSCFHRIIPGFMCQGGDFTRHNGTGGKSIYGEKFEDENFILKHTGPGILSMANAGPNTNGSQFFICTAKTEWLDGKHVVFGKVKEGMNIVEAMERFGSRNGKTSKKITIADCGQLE
# Protocol: as §1
# CypC = target: T3, CypC (Homo sapiens, UniProt P45877); test: Chymotrypsin coupled prolyl-isomerase assay; format: biochemical
# T3 construct: PPIC (UniProtKB Entry P45877: residues 24–212); host or cells: E. coli BL21(DE3)
# T3 sequence (P45877 24-212): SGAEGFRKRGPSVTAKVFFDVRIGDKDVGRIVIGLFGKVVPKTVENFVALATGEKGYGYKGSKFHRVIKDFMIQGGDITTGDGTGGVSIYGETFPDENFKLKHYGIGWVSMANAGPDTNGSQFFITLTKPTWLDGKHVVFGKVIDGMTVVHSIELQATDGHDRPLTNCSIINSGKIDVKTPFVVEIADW
# Protocol: as §1
# CypE = target: T4, CypE (Homo sapiens, UniProt Q9UNP9); test: Chymotrypsin coupled prolyl-isomerase assay; format: biochemical
# T4 construct: PPIE (UniProtKB Entry Q9UNP9: residues 131–301); host or cells: E. coli BL21(DE3)
# T4 sequence (Q9UNP9 131-301): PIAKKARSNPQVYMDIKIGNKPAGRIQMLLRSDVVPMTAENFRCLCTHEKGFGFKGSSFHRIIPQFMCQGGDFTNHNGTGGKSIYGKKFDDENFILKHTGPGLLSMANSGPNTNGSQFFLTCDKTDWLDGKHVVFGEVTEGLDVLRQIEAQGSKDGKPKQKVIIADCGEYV
# Protocol: as §1
# CypH = target: T5, CypH (Homo sapiens, UniProt O43447); test: Chymotrypsin coupled prolyl-isomerase assay; format: biochemical
# T5 construct: PPIH (UniProtKB Entry O43447: residues 1–177); His6 with TEV site (2BT vector leader) (N); made in house; host or cells: E. coli BL21(DE3)
# T5 sequence (O43447 whole entry, the tested form may be a part): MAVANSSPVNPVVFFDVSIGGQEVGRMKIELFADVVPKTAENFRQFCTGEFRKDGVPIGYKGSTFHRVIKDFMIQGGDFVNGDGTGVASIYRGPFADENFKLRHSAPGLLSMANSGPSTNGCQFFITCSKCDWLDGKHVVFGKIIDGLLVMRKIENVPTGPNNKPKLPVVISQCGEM
# Protocol: as §1
# NKTR = target: T6, NKTR (Homo sapiens, UniProt P30414); test: Chymotrypsin coupled prolyl-isomerase assay; format: biochemical
# T6 construct: NKTR (UniProtKB Entry P30414: residues 7–179); host or cells: E. coli BL21(DE3)
# T6 sequence (P30414 7-179): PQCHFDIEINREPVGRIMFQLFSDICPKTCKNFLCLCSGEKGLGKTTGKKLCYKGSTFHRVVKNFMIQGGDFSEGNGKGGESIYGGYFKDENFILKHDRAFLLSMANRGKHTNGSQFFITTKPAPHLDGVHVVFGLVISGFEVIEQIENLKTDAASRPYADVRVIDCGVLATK
# Protocol: Adapting a previously described protocol[51], with an Agilent Bravo Velocity 11 with a 384ST head, 90 µL assay buffer (25 mM HEPES pH 7.3, 100 mM NaCl, 0.01% Triton X-100) containing 5.28 nM cyclophilin was added into a flat, clear-bottom, black 384-well plate pre-chilled in a Corning CoolBox at 2–3 °C. Five microliters of compound pre-dissolved in 5% DMSO/assay buffer was then added to appropriate wells and incubated at 2–3 °C for 5 min. Five microliters of 0.5 mM α-chymotrypsin from bovine pancreas (Type II, lyophilized powder, Millipore-Sigma) in 20% 1 mM HCl/Assay Buffer was then added to each well and incubated at 2–3 °C for 5 min. […] Using the internal liquid handling system of the FLIPR, 1 µL 0.5 mM Suc-AAPF-AMC (Chymotrypsin Substrate II, Millipore-Sigma) dissolved in 0.55 M LiCl/2,2,2-trifluoroethanol was added to each well, which was then mixed for 5 s, followed by immediate fluorescence measurements every 1 s for 330 s using a 360–380 nm excitation LED module and a 400–460 nm emission filter. Final concentrations of the plate include 5 nM cyclophilin, 0.25% DMSO, 25 µM α-chymotrypsin, 5 µM Suc-AAPF-AMC. Raw fluorescence data was analyzed by non-linear regression analysis with Prism v.9 by fitting one-phase association curves to each well. Analyses were halted after the calculated maximum fluorescent value owing to observed fluorescent bleaching during the sustained fluorescent plateau. Rate constants calculated for each well (s^−1) were then normalized to substrate only (no prolyl-isomerase) and enzyme + substrate only controls. IC50 values were calculated as the value at which 50% inhibition was achieved on the non-linear regression fitted curve of each compound.
# CypB = target: T7, CypB (Homo sapiens, UniProt P23284); test: biochemical
# T7 construct: PPIB (UniProtKB Entry P23284: residues 34–216); His6 with TEV site (2BT vector leader) (N); made in house; host or cells: E. coli BL21(DE3)
# T7 sequence (P23284 34-216): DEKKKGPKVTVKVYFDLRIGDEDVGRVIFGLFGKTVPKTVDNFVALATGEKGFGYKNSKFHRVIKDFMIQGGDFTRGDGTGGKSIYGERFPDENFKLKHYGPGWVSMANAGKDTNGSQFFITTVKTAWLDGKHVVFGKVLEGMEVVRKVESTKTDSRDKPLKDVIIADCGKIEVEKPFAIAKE
# Protocol: as §1
# Cyp40 = Cyp40 (Homo sapiens, UniProt Q08752); test: Chymotrypsin coupled prolyl-isomerase assay; settings: read-out: Wild-Type Cyclophilin Prolyl Isomerase Inhibition IC50 Values, Cyp40; wild-type Cyp40
# Sequence of Cyp40 (Q08752 1-183): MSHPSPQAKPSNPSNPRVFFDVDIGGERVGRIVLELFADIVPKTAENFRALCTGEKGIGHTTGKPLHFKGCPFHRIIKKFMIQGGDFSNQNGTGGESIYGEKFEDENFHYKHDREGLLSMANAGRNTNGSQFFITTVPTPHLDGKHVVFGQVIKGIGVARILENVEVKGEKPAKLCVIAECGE
# Protocol: as §1
# [1] = wild-type CypA, read-out: Wild-Type Cyclophilin Prolyl Isomerase Inhibition IC50 Values, CypA
# [2] = wild-type CypC, read-out: Wild-Type Cyclophilin Prolyl Isomerase Inhibition IC50 Values, CypC
# [3] = wild-type CypE, read-out: Wild-Type Cyclophilin Prolyl Isomerase Inhibition IC50 Values, CypE
# [4] = wild-type CypH, read-out: Wild-Type Cyclophilin Prolyl Isomerase Inhibition IC50 Values, CypH
# [5] = wild-type NKTR, read-out: Wild-Type Cyclophilin Prolyl Isomerase Inhibition IC50 Values, NKTR
# [6] = wild-type CypB, read-out: Wild-Type Cyclophilin Prolyl Isomerase Inhibition IC50 Values, CypB
smiles,measurement,setting,value
C[N+]1=C(C=CC=CC=C2N(CCCCCC(=O)NCCNC(=O)C3CCNC(=O)C=CC(=O)N4CCCC(Cc5ccccc5)(C4)C(=O)NC(Cc4ccc(-c5ccc(CC(C(=O)O)C(=O)O)cc5)cc4)C(=O)NCc4ccccc4CC(=O)N3)c3ccccc3C2(C)C)C(C)(C)c2ccccc21 (stereo not shown) [*B52-Cy5],IC50,CypG,> 10 µM
same,IC50,CypA; [1],> 10 µM
same,IC50,CypC; [2],> 10 µM
same,IC50,CypE; [3],> 10 µM
same,IC50,CypH; [4],> 10 µM
same,IC50,NKTR; [5],> 10 µM
same,IC50,CypB; [6],> 10 µM
same,IC50,Cyp40,> 10 µM
C[N+]1=C(C=CC=CC=C2N(CCCCCC(=O)NCCNC(=O)C3CCNC(=O)C=CC(=O)N4CCCC(Cc5ccccc5)(C4)C(=O)NC(Cc4ccc(-c5ccc(C(CC(=O)O)CC(=O)O)cc5)cc4)C(=O)NCc4ccccc4CC(=O)N3)c3ccccc3C2(C)C)C(C)(C)c2ccccc21 (stereo not shown) [*B53-Cy5],IC50,CypG,> 10 µM
same,IC50,CypA; [1],> 10 µM
same,IC50,CypC; [2],> 10 µM
same,IC50,CypE; [3],> 10 µM
same,IC50,CypH; [4],> 10 µM
same,IC50,NKTR; [5],> 10 µM
same,IC50,CypB; [6],> 10 µM
same,IC50,Cyp40,> 10 µM
NC(=O)[C@@H]1CCNC(=O)/C=C/C(=O)N2CCC[C@](Cc3ccccc3)(C2)C(=O)N[C@@H](Cc2ccc(-c3cccc(B(O)O)c3)cc2)C(=O)NCc2ccccc2CC(=O)N1 [Compound C6A],IC50,CypG,1.3 µM
same,IC50,"CypA; prolyl-isomerase inhibition, 5 nM cyclophilin, read-out: IC50 CypA",~6 µM
same,IC50,CypA; [1],6 µM
same,IC50,"CypC; prolyl-isomerase inhibition, 5 nM cyclophilin, read-out: IC50 CypC",~5 µM
same,IC50,CypC; [2],5 µM
same,IC50,"CypE; prolyl-isomerase inhibition, 5 nM cyclophilin, read-out: IC50 CypE",~4 µM and 4 µM
same,IC50,"CypH; prolyl-isomerase inhibition, 5 nM cyclophilin, read-out: IC50 CypH",~4 µM
same,IC50,CypH; [4],4 µM
same,IC50,"NKTR; prolyl-isomerase inhibition, 5 nM cyclophilin, read-out: IC50 NKTR",> 10 µM
same,IC50,NKTR; [5],5 µM
same,IC50,"CypB; prolyl-isomerase inhibition, 5 nM cyclophilin, read-out: IC50 CypB",~8 µM
same,IC50,CypB; [6],8 µM
